From US20230102309A1, “TYROSINE KINASE INHIBITOR CONJUGATES” (Ascendis Pharma Oncology Division A/S, priority 2019, published 2023)
Marks after values point to notes of the source that are not given here.

Experiments:
[1] = test system: MC-38 tumor cells; experiment: In vivo anti-tumor efficacy and combination efficacy with anti-PD1, bilateral MC-38 tumors; set-up: species or system C57BL/6 mice; conditions: Axitinib 25 mg/kg oral twice daily, antibodies 10 mg/kg IP; for Absolute tumor volume of left flank tumors, mean: left (not injected) tumor, hydrogels 50 μL IT into right tumor once Day 0 (7a 378, 8a 136, 8b 47 μg eq. axitinib); for Absolute tumor volume of right flank tumors, mean: right (IT-treated) tumor, hydrogels 50 μL IT once Day 0 (7a 378, 8a 136, 8b 47 μg eq. axitinib)
Procedure: The study was conducted in female C57BL/6 mice with an age of 6-8 weeks at the day of tumor inoculation. Mice were implanted with 1×10^6 MC-38 tumor cells into the left and right flanks. When right flank tumors were grown to a mean tumor volume of ˜104 mm^3, mice were randomized into treatment cohorts. For animals that received intratumoral injections, the right tumor was selected for treatment.
(§1) Following treatment initiation, anti-tumor efficacy was assessed by determination of tumor volumes at various time points from tumor size measurements with a caliper. Tumor volumes were calculated according to the formula: […]
(§2) where L is the length of the tumor and W the width (both in mm).

[2] = test system: MC-38/C11G tumor cells; experiment: Anti-tumor efficacy within the in vivo PK study; set-up: species or system C57BL/6 mice; conditions: Axitinib 3 mg/kg oral twice a day for 14 days, 9c single IT 50 μL
Procedure: (§3) The study was conducted in female C57BL/6 mice with an age of 6-8 weeks at the day of tumor inoculation. Mice were implanted with 1×10^6 of MC-38/C11G tumor cells into the right flank.
(§4) When tumors were grown to a mean tumor volume of ˜94 mm^3, mice were randomized into treatment cohorts (day 0). Following randomization, animals received either a single intratumoral injection of hydrogel 1 or hydrogel 9c as a single intratumoral dose in an injection volume of 50 μL, or with orally administered Axitinib suspended in 0.5% carboxymethylcellulose at 3 mg/kg in a 100 μl dose volume twice a day for 14 days. Hydrogels were administered as suspensions in pH 5.5 20 mM sodium succinate, 77 g/l trehalose dihydrate, 0.2% Pluronic F-68 buffer.
as §1, §2

[3] = Axitinib concentration in plasma samples; assay type: in vivo, C57BL/6 mice; conditions: female, C57BL/6, mouse, 9c single IT 50 μL (n=4), Axitinib 3 mg/kg oral (n=3), LLOQ 50.0 pg/mL
Procedure: as §3, §4
After 0.5, 1, 4 12, and 24 hours following treatment, 4 mice from the hydrogel 9c and Axitinib treated groups were sacrificed and terminal blood was collected in EDTA. Plasma was prepared after blood withdrawal. After 72 hours following treatment, 4 mice from the hydrogel 9c treated group were sacrificed and tumors were excised and snap frozen. Plasma samples underwent further processing by solid-phase extraction prior to Axitinib concentration determination by LCMS/MS.
All solvents (UPLC grade) as well as formic acid (ULC/MS quality) were purchased from Biosolve BV, Valkenswaard, The Netherlands. Axitinib concentrations in plasma were determined after solid phase extraction via liquid chromatography separation and detection by mass spectrometry (LCMS). As internal standard [^13C, D3]-axitinib was used. LCMS analysis was carried out by using an Agilent Infinity ultra high performance liquid chromatography (UHPLC) system coupled to an AbSciex 6500+ QTrap triple quadrupole mass spectrometer (QQQ) via an ESI probe. Chromatography was performed on a C18 analytical UHPLC column (YMC-Triart, 2.1×50 mm, 1.9 μm particle). Water containing 0.1% formic acid (v/v) was used as mobile phase A and acetonitrile with 0.1% formic acid as mobile phase B. The gradient system comprised a linear increase from 15% B to 30% B in 2.7 min. […]

For `CNC(=O)c1ccccc1Sc1ccc2c(/C=C/c3ccccn3)n[nH]c2c1` [Axitinib, axitinib], the “Absolute tumor volume of left flank tumors, mean” value ([1]; day 0 post-treatment) was 112.18 mm^3, the “Absolute tumor volume of right flank tumors, mean” value ([1]; day 0 post-treatment) was 104.22 mm^3 and the “Absolute tumor volume of left flank tumors, mean” value ([1]; day 3 post-treatment) was 321.44 mm^3. The “Absolute tumor volume of right flank tumors, mean” value ([1]; day 3 post-treatment) was 304.55 mm^3, the “Absolute tumor volume of left flank tumors, mean” value ([1]; day 5 post-treatment) was 432.85 mm^3 and the “Absolute tumor volume of right flank tumors, mean” value ([1]; day 5 post-treatment) was 419.99 mm^3. The “Absolute tumor volume of left flank tumors, mean” value ([1]; day 7 post-treatment) was 601.11 mm^3, the “Absolute tumor volume of right flank tumors, mean” value ([1]; day 7 post-treatment) was 543.06 mm^3 and the “Absolute tumor volume of left flank tumors, mean” value ([1]; day 10 post-treatment) was 741.81† mm^3. For the same compound, the “Absolute tumor volume of right flank tumors, mean” value ([1]; day 10 post-treatment) was 763.99 mm^3, the “Absolute tumor volume of left flank tumors, mean” value ([1]; day 12 post-treatment) was 967.56†, †† mm^3 and the “Absolute tumor volume of right flank tumors, mean” value ([1]; day 12 post-treatment) was 994.16† mm^3. The “Absolute tumor volume, mean” value ([2]; day 0 post-treatment) was 93.862 mm^3, the “Absolute tumor volume, mean” value ([2]; day 4 post-treatment) was 243.647 mm^3 and the “Absolute tumor volume, mean” value ([2]; day 7 post-treatment) was 418.787 mm^3. The “Absolute tumor volume, mean” value ([2]; day 11 post-treatment) was 710.390 mm^3, the “Absolute tumor volume, mean” value ([2]; day 14 post-treatment) was 977.619* mm^3 and the concentration at 0.5 h ([3]; 0.5 h) was 101 ng/mL. It also gave a concentration at 1 h ([3]; 1 h) of 76.8 ng/mL and a concentration at 12 h ([3]; 12 h) of 0.797 ng/mL.
